The IC50 is the concentration that gives 50% inhibition.

In this test the target is T1, Catechol O-methyltransferase (Rattus norvegicus, UniProt P22734).
T1 sequence (P22734 whole entry): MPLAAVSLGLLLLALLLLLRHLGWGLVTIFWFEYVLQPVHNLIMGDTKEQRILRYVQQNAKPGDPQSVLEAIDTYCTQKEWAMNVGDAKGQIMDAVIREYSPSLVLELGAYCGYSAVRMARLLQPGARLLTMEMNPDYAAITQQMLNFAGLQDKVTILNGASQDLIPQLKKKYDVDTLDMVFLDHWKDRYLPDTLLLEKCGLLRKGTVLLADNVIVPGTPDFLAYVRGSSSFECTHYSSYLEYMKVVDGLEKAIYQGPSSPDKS
Briefly: Radiochemical Assay. Particulars: 37 °C. The procedure: The binding affinity of the inhibitors towards Catechol O-methyltransferase in the presence of Mg2+ ions were determined by using a radiochemical assay.

As to `Nc1ncnc2c1ncn2[C@@H]1O[C@H](/C=C/CNC(=O)c2cc(C(=O)C3CCCCC3)cc(O)c2O)[C@@H](O)[C@H]1O` [Bi-substrate Inhibitor, 1n], it took 83 nM to reach half-maximal inhibition (IC50). This lies in the double-digit nanomolar range.
As to `Nc1ncnc2c1ncn2[C@@H]1O[C@H](/C=C/CNC(=O)c2cc(C(=O)c3ccncc3)cc(O)c2O)[C@@H](O)[C@H]1O` [Bi-substrate Inhibitor, 1l], the IC50 is 42 nM.
In the case of `Nc1ncnc2c1ncn2[C@@H]1O[C@H](/C=C/CNC(=O)c2cccc(O)c2O)C(O)[C@H]1O` (stereo partly drawn) [Bi-substrate Inhibitor, 1t] it was 2600 nM; in that of `Cc1ccc(C(=O)c2cc(O)c(O)c(C(=O)NC/C=C/[C@H]3O[C@@H](n4cnc5c(N)ncnc54)[C@H](O)[C@@H]3O)c2)cc1` [Bi-substrate Inhibitor, 1i], 34 nM.
For `Nc1ncnc2c1ncn2[C@@H]1O[C@H](/C=C/CNC(=O)c2cc(-c3ccncc3)cc(O)c2O)[C@@H](O)[C@H]1O` [Bi-substrate Inhibitor, 1d], the IC50 was found to be 23 nM.
For the compound `Nc1ncnc2c1ncn2[C@@H]1O[C@H](/C=C/CNC(=O)c2cc(C(=O)C(F)(F)F)cc(O)c2O)[C@@H](O)[C@H]1O` [Bi-substrate Inhibitor, 1k], it took 39 nM to reach half-maximal inhibition (IC50).
In the case of `Nc1ncnc2c1ncn2[C@@H]1O[C@H](/C=C/CNC(=O)c2cc(-c3ccc(F)cc3)cc(O)c2O)[C@@H](O)[C@H]1O` [Bi-substrate Inhibitor, 1b] it was 21 nM; in that of `Nc1ncnc2c1ncn2[C@@H]1O[C@H](/C=C/CNC(=O)c2cc(C(F)(F)F)cc(O)c2O)[C@@H](O)[C@H]1O` [Bi-substrate Inhibitor, 1j], 35 nM; in that of `CN(C)C(=O)/C=C/c1cc(O)c(O)c(C(=O)NC/C=C/[C@H]2O[C@@H](n3cnc4c(N)ncnc43)[C@H](O)[C@@H]2O)c1` [Bi-substrate Inhibitor, 1o], 97 nM.
Turning to `Nc1ncnc2c1ncn2[C@@H]1O[C@H](/C=C/CNC(=O)c2cc(-c3nccs3)cc(O)c2O)[C@@H](O)[C@H]1O` [Bi-substrate Inhibitor, 1e], 27 nM corresponded to half-maximal inhibition (IC50).
In the case of `Cc1ccc(-c2cc(O)c(O)c(C(=O)NC/C=C/[C@H]3O[C@@H](n4cnc5c(N)ncnc54)[C@H](O)[C@@H]3O)c2)cc1` [Bi-substrate Inhibitor, 1c] it was 23 nM; in that of `N#Cc1cc(O)c(O)c(C(=O)NC/C=C/[C@H]2O[C@@H](n3cnc4c(N)ncnc43)[C@H](O)[C@@H]2O)c1` [Bi-substrate Inhibitor, 1h], 29 nM; in that of `Nc1ncnc2c1ncn2[C@@H]1O[C@H](/C=C/CNC(=O)c2cc([N+](=O)[O-])cc(O)c2O)[C@@H](O)[C@H]1O` [Bi-substrate Inhibitor, 1a], 9 nM.
In the case of `Nc1ncnc2c1ncn2[C@@H]1O[C@H](/C=C/CNC(=O)c2cc(Br)cc(O)c2O)[C@@H](O)[C@H]1O` [Bi-substrate Inhibitor, 1f] it was 28 nM; in that of `CN(C)C(=O)c1cc(O)c(O)c(C(=O)NC/C=C/[C@H]2O[C@@H](n3cnc4c(N)ncnc43)[C@H](O)C2O)c1` (stereo partly drawn) [Bi-substrate Inhibitor, 1s], 2000 nM.
As to `Nc1ncnc2c1ncn2[C@@H]1O[C@H](/C=C/CNC(=O)c2cc(Cl)cc(O)c2O)[C@@H](O)[C@H]1O` [Bi-substrate Inhibitor, 1m], inhibition was half-maximal at 44 nM (IC50). Against the preceding compound, the IC50 is about 45-fold lower.
The figure for `Cc1ccc(Cc2cc(O)c(O)c(C(=O)NC/C=C/[C@H]3O[C@@H](n4cnc5c(N)ncnc54)[C@H](O)C3O)c2)cc1` (stereo partly drawn) [Bi-substrate Inhibitor, 1q] is 608 nM; for `Cc1ccc(S(=O)(=O)c2cc(O)c(O)c(C(=O)NC/C=C/[C@H]3O[C@@H](n4cnc5c(N)ncnc54)[C@H](O)C3O)c2)cc1` (stereo partly drawn) [Bi-substrate Inhibitor, 1p] it is 213 nM.

The values are drawn from BindingDB's records for doi:10.1002/cbic.200400084 (Laboratorium FÜR Organische Chemie, 2004).
